# Data reported in patent US20110218188A1, “SUBSTITUTED (PYRIDYL)-AZINYLAMINE DERIVATIVES AS FUNGICIDES” (priority 2008, published 2011).
# Assay: Measurement of logP values by HPLC on reversed phase columns (EEC directive 79/831 Annex V.A8)
# Format: physicochemical
# Conditions: pH 2.7
Compound,logP,chromatographic logP
CC(C)N(C)C(=O)c1cc(-c2ncnc(Nc3cccc(C(F)F)c3)n2)ccn1 [Example B290],2.65,
CN(CCC#N)C(=O)c1cc(-c2ncnc(Nc3cccc(C#N)c3)n2)ccn1 [Example B291],1.99,
CCN(CC)C(=O)c1cc(-c2ncnc(Nc3cccc(C#N)c3)n2)ccn1 [Example B292],2.45,
CCCN(C)C(=O)c1cc(-c2ncnc(Nc3cccc(C#N)c3)n2)ccn1 [Example B293],2.45,
CN(C)C(=O)c1cc(-c2ncnc(Nc3cccc(C#N)c3)n2)ccn1 [Example B294],1.88,
CC(C)CN(C)C(=O)c1cc(-c2ncnc(Nc3cccc(C#N)c3)n2)ccn1 [Example B295],2.73,
CC(C)N(C)C(=O)c1cc(-c2ncnc(Nc3cccc(C#N)c3)n2)ccn1 [Example B296],2.37,
CN(CCC#N)C(=O)c1cc(-c2ncnc(Nc3cccc(OC(F)F)c3)n2)ccn1 [Example B297],2.37,
CCN(CC)C(=O)c1cc(-c2ncnc(Nc3cccc(OC(F)F)c3)n2)ccn1 [Example B298],2.88,
CCCN(C)C(=O)c1cc(-c2ncnc(Nc3cccc(OC(F)F)c3)n2)ccn1 [Example B299],2.86,
CN(C)C(=O)c1cc(-c2ncnc(Nc3cccc(OC(F)F)c3)n2)ccn1 [Example B300],2.25,
CC(C)CN(C)C(=O)c1cc(-c2ncnc(Nc3cccc(OC(F)F)c3)n2)ccn1 [Example B301],3.15,
CC(C)N(C)C(=O)c1cc(-c2ncnc(Nc3cccc(OC(F)F)c3)n2)ccn1 [Example B302],2.78,
COCC(C1CC1)N(C)C(=O)c1cc(-c2ncnc(Nc3cccc(OC(F)F)c3)n2)ccn1 (stereo not drawn) [Example B303],2.94,
CCCN(C)C(=O)c1cc(-c2ncnc(Nc3cccc(NC(C)=O)c3)n2)ccn1 [Example B305],1.87,
CC(=O)Nc1cccc(Nc2ncnc(-c3ccnc(C(=O)N(C)C)c3)n2)c1 [Example B307],1.4,
CC(=O)Nc1cccc(Nc2ncnc(-c3ccnc(C(=O)N(C)CC(C)C)c3)n2)c1 [Example B308],2.1,
CN(CCC#N)C(=O)c1cc(-c2ncnc(Nc3ccccc3)n2)ccn1 [Example B310],2.07,
CCN(CC)C(=O)c1cc(-c2ncnc(Nc3ccccc3)n2)ccn1 [Example B311],2.55,
CCCN(C)C(=O)c1cc(-c2ncnc(Nc3ccccc3)n2)ccn1 [Example B312],2.55,
CN(CC1CC1)C(=O)c1cc(-c2ncnc(Nc3ccccc3)n2)ccn1 [Example B313],2.65,

Compound,logP,chromatographic logP
CN(C)C(=O)c1cc(-c2ncnc(Nc3ccccc3)n2)ccn1 [Example B314],1.95,
CC(C)CN(C)C(=O)c1cc(-c2ncnc(Nc3ccccc3)n2)ccn1 [Example B315],2.84,
CCN(C)C(=O)c1cc(-c2ncnc(Nc3ccccc3)n2)ccn1 [Example B316],2.2,
CC(C)N(C)C(=O)c1cc(-c2ncnc(Nc3ccccc3)n2)ccn1 [Example B317],2.45,
CCN(C)C(=S)c1cc(-c2ncnc(Nc3ccccc3)n2)ccn1 [Example B318],2.73,
CCN(CC)C(=S)c1cc(-c2ncnc(Nc3cccc(C(F)(F)F)c3)n2)ccn1 [Example B326],3.78,
CCN(CC)C(=S)c1cc(-c2ncnc(Nc3ccc(F)c(C(F)F)c3)n2)ccn1 [Example B327],3.37,
CCN(CC)C(=S)c1cc(-c2ncnc(Nc3cccc(C(F)F)c3)n2)ccn1 [Example B328],3.27,
CC(C)N(C)C(=S)c1cc(-c2ncnc(Nc3ccc(F)c(C(F)F)c3)n2)ccn1 [Example B329],3.29,
CN(CC1CC1)C(=S)c1cc(-c2ncnc(Nc3cccc(Cl)c3)n2)ccn1 [Example B330],3.76,
CN(CC1CC1)C(=S)c1cc(-c2ncnc(Nc3cccc(C(F)F)c3)n2)ccn1 [Example B331],3.37,
CN(C)C(=S)c1cc(-c2ncnc(Nc3ccc(F)c(C(F)F)c3)n2)ccn1 [Example B332],2.73,
CCN(C)C(=S)c1cc(-c2ncnc(Nc3ccc(F)c(C(F)F)c3)n2)ccn1 [Example B333],3.04,
CCCN(C)C(=S)c1cc(-c2ncnc(Nc3ccc(F)c(C(F)F)c3)n2)ccn1 [Example B334],3.4,
CC(C)CN(C)C(=S)c1cc(-c2ncnc(Nc3ccc(F)c(C(F)F)c3)n2)ccn1 [Example B335],3.71,
CCCN(C)C(=S)c1cc(-c2ncnc(Nc3cccc(Cl)c3)n2)ccn1 [Example B336],3.65,
CN(CC1CC1)C(=S)c1cc(-c2ncnc(Nc3ccccc3)n2)ccn1 [Example B337],3.23,
CCN(C)C(=S)c1cc(-c2ncnc(N(C(=O)COC)c3cccc(F)c3)n2)ccn1 [Example B338],2.62,
CCN(C)C(=S)c1cc(-c2ncnc(N(C(C)=O)c3cccc(F)c3)n2)ccn1 [Example B339],2.73,
CN(CCC#N)C(=S)c1cc(-c2ncnc(Nc3ccc(F)c(C(F)F)c3)n2)ccn1 [Example B340],2.82,
CCN(C)C(=S)c1cc(-c2ncnc(Nc3cccc(C(F)F)c3)n2)ccn1 [Example B341],2.94,

Compound,logP,chromatographic logP
CN(CC(F)F)C(=S)c1cc(-c2ncnc(Nc3ccc(F)c(C(F)F)c3)n2)ccn1 [Example B342],3.35,
CN(CCC#N)C(=S)c1cc(-c2ncnc(Nc3cccc(Cl)c3)n2)ccn1 [Example B343],3.02,
"CC(=O)N(c1ccccc1)c1ncnc(-c2ccnc(C(=S)N(C)CC3CC3)c2)n1 [Example B344, N-(4-{2-[(cyclopropylmethyl)(methyl)carbamothioyl]pyridin-4-yl}-1,3,5-triazin-2-yl)-N-phenylacetamide]",,3.02
CCN(CC)C(=O)c1cc(-c2ncnc(Nc3cccc(C(F)(F)F)c3)n2)ccn1 [Example B346],3.23,
CCN(CC)C(=O)c1cc(-c2ncnc(Nc3cccc(OC(F)(F)C(F)F)c3)n2)ccn1 [Example B348],3.29,
CCN(CC)C(=O)c1cc(-c2ncnc(Nc3ccc(C)c(Cl)c3)n2)ccn1 [Example B349],3.44,
CCN(CC)C(=O)c1cc(-c2ncnc(Nc3ccc(Cl)c(C(F)F)c3)n2)ccn1 [Example B352],3.23,
CCN(CC)C(=O)c1cc(-c2ncnc(Nc3ccc(F)c(C(F)F)c3)n2)ccn1 [Example B353],2.86,
CN(C)C(=O)c1cc(-c2ncnc(Nc3cc(F)ccc3F)n2)ccn1 [Example B354],2.1,
CN(C)C(=O)c1cc(-c2ncnc(Nc3cccc(C(F)(F)F)c3)n2)ccn1 [Example B355],2.58,
CCCN(C)C(=O)c1cc(-c2ncnc(Nc3cccc(C(F)(F)F)c3)n2)ccn1 [Example B356],3.25,
CN(CC1CC1)C(=O)c1cc(-c2ncnc(Nc3cccc(C(F)(F)F)c3)n2)ccn1 [Example B357],3.33,
CCN(C)C(=O)c1cc(-c2ncnc(Nc3cc(F)ccc3F)n2)ccn1 [Example B358],2.39,
Cc1ccc(Nc2ncnc(-c3ccnc(C(=O)N(C)C)c3)n2)cc1Cl [Example B359],2.71,
COCCN(C)C(=O)c1cc(-c2ncnc(Nc3cccc(C(F)(F)F)c3)n2)ccn1 [Example B361],2.75,
CC(C)CN(C)C(=O)c1cc(-c2ncnc(Nc3cccc(C(F)(F)F)c3)n2)ccn1 [Example B362],3.58,
CN(CCC#N)C(=O)c1cc(-c2ncnc(Nc3cccc(C(F)(F)F)c3)n2)ccn1 [Example B363],2.68,
CN(C)C(=O)c1cc(-c2ncnc(Nc3cccc(OC(F)(F)C(F)F)c3)n2)ccn1 [Example B364],2.64,
Cc1ccc(Nc2ncnc(-c3ccnc(C(=O)N(C)C(C)C)c3)n2)cc1Cl [Example B365],3.33,
Cc1ccc(Nc2ncnc(-c3ccnc(C(=O)N(C)CCC#N)c3)n2)cc1Cl [Example B366],2.8,
Cc1ccc(Nc2ncnc(-c3ccnc(C(=O)N(C)CC4CC4)c3)n2)cc1Cl [Example B367],3.53,

Compound,logP,chromatographic logP
Cc1ccc(Nc2ncnc(-c3ccnc(C(=O)N(C)CC(C)C)c3)n2)cc1Cl [Example B368],3.78,
CN(CC(F)F)C(=O)c1cc(-c2ncnc(Nc3cccc(C#N)c3)n2)ccn1 [Example B369],2.45,
CN(CC(F)F)C(=O)c1cc(-c2ncnc(Nc3cccc(OC(F)F)c3)n2)ccn1 [Example B370],2.86,
CN(CC(F)F)C(=O)c1cc(-c2ncnc(Nc3cccc(C(F)F)c3)n2)ccn1 [Example B371],2.75,
CSc1cccc(Nc2ncnc(-c3ccnc(C(=O)N(C)CC(F)F)c3)n2)c1 [Example B372],2.96,
CN(CC(F)F)C(=O)c1cc(-c2ncnc(Nc3cccc(Cl)c3)n2)ccn1 [Example B373],3.06,
CCCN(C)C(=O)c1cc(-c2ncnc(Nc3ccc(C)c(Cl)c3)n2)ccn1 [Example B374],3.42,
CCCCN(C)C(=O)c1cc(-c2ncnc(Nc3cccc(F)c3)n2)ccn1 [Example B376],3.09,
CN(C)C(=O)c1cc(-c2ncnc(Nc3ccc(F)c(F)c3)n2)ccn1 [Example B377],2.25,
CCN(C)C(=O)c1cc(-c2ncnc(Nc3ccc(F)c(F)c3)n2)ccn1 [Example B378],2.55,
CCCN(C)C(=O)c1cc(-c2ncnc(Nc3ccc(F)c(F)c3)n2)ccn1 [Example B379],2.86,
CC(C)CN(C)C(=O)c1cc(-c2ncnc(Nc3ccc(F)c(F)c3)n2)ccn1 [Example B380],3.19,
CN(CC1CC1)C(=O)c1cc(-c2ncnc(Nc3ccc(F)c(F)c3)n2)ccn1 [Example B381],2.98,
CN(CC(F)F)C(=O)c1cc(-c2ncnc(Nc3ccc(F)c(F)c3)n2)ccn1 [Example B382],2.86,
CC(C)N(C)C(=O)c1cc(-c2ncnc(Nc3ccc(F)c(F)c3)n2)ccn1 [Example B383],2.78,
CN(CCC#N)C(=O)c1cc(-c2ncnc(Nc3ccc(F)c(F)c3)n2)ccn1 [Example B384],2.35,
CN(C)C(=O)c1cc(-c2ncnc(Nc3ccc(Cl)c(C(F)F)c3)n2)ccn1 [Example B385],2.59,
CCN(C)C(=O)c1cc(-c2ncnc(Nc3ccc(Cl)c(C(F)F)c3)n2)ccn1 [Example B386],2.88,
